From patent US20230127498A1, “TREATMENT OF RESPIRATORY DISORDERS” (Terns, Inc., priority 2020, published 2023)
Where a name gives a salt, the structure may show the parent alone. Read-outs that look alike come from different tables or passages of the source.

Assays:
[1] = in vivo; cited from earlier work
rhinovirus = conditions: mice sensitized with HDM, challenged with HDM and rhinovirus; cited from earlier work
[2] = cited from earlier work
[3] = tested on: Influenza A virus, WSN/33 strain of H1N1; conditions: for Median survival time / Survival proportion / Prolonged survival time*: Formula 5 20 mg/kg QD, oseltamivir 5 mg/kg BID; for Prolonged survival time*: compared with vehicle group
methylamine (MMA) = assay: Single-ascending dose clinical trial: plasma methylamine (MMA) levels; format: in vivo, human
Description: (§1) Safety was assessed for 7 (±3) days after dosing.

SSAO = biological target: T1, SSAO (Homo sapiens, UniProt Q16853); assay: Single-ascending dose clinical trial: plasma SSAO activity (H2O2 generation); format: in vivo
T1 construct: from tissue; host or cells: human plasma (healthy volunteers)
T1 sequence (Q16853 27-763 limits assumed): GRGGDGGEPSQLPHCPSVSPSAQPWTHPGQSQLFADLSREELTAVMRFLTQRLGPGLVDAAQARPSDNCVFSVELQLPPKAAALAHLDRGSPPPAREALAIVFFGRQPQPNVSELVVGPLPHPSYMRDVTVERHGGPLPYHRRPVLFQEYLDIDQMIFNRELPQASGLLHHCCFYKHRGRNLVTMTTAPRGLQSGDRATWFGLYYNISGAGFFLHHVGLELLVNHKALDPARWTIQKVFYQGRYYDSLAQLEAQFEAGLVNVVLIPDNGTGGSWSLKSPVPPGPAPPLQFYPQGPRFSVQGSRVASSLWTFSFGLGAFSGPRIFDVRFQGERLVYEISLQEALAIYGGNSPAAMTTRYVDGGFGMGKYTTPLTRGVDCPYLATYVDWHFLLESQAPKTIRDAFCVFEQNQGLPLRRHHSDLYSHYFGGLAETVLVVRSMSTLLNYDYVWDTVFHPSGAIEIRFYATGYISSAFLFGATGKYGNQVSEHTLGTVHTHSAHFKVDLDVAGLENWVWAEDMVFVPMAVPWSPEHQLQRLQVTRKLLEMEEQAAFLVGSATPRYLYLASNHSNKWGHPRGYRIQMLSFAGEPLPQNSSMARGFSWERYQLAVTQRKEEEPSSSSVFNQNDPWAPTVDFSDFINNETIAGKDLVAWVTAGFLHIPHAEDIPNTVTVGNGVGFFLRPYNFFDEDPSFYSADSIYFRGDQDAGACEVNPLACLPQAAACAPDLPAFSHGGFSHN
Description: as §1
(§2) Plasma PK parameters were determined by non-compartmental analysis.
SSAO-specific amine oxidase levels in plasma were determined using a kinetic-based assay essentially as described previously (Schilter et al). Endogenous monoamine oxidases A and B were inhibited by adding pargyline to plasma samples prior to measuring H2O2 generation levels in placebo and active recipients.

Rat model of NASH = conditions: in vivo
[4] = mouse, in vivo; cited from earlier work
[5] = Single-ascending dose clinical trial: safety, adverse events; format: in vivo, human
Description: as §1

[6] = human, in vivo
Description: as §1, §2

## CC(C)(C)NC(=O)c1ccc(OC/C(=C/F)CN)cc1.Cl [BI 1467335]
[1]
  airway infiltration of inflammatory immune cells: suppressed
  lung function: improved
  pulmonary fibrosis: reduced
rhinovirus
  airway hyperreactivity: reduced
  inflammatory cellular infiltrates: reduced
[2]; by diminishing leukocyte rolling and adherence
  cytokine-induced cell migration: reduced
[2]; in vivo
  LPS-induced neutrophil lung migration: reduced

## COC1CCN(c2ncc(OC/C(=C/F)CN)cn2)CC1 [Compound of Formula 5]
[3]; […]
  Median survival time: 6 days
  Survival proportion: 0%
  Prolonged survival time*: 20%
[3]; monotherapy or in combination with oseltamivir
  exacerbation of viral replication or pathology: did not appear to exacerbate
[3]; prophylactic
  Prolonged survival time*: 20%
Methylamine (MMA); across the dose range, single dose
  plasma methylamine: Dose-dependent increases
Methylamine (MMA); after single doses
  duration of dose-dependent increases in plasma MMA: up to 1 week
Methylamine (MMA); single dose
  Maximum plasma MMA levels: increased
SSAO; all dose cohorts, single dose
  inhibition of plasma SSAO activity at 4 hours post-dose: near complete inhibition
SSAO; single dose
  duration of suppression of plasma SSAO activity after a single dose: up to 1 week
SSAO; single doses, all subjects
  plasma amine oxidase activity: rapidly and potently decreased
SSAO; single oral dose 1 mg to 10 mg
  duration of SSAO activity inhibition after a single dose: up to seven days
Rat model of NASH
  liver fibrosis: decreases
  liver inflammation: decreases

## CCOC(=O)C1=C[C@@H](OC(CC)CC)[C@H](NC(C)=O)[C@@H](N)C1 [Oseltamivir, oseltamivir, reference compound]
[3]; […]
  Median survival time: undefined
  Survival proportion: 100%
  Prolonged survival time*: undefined
[3]; prophylactic
  Prolonged survival time*: undefined

## NC/C(=C\F)COc1ccc(S(N)(=O)=O)cc1 [PXS-4681A]
[4]
  cytokine production: reduced
  effects relative to dexamethasone treatment: comparable
  leukocyte trafficking: reduced

## COC1CCN(c2ncc(OC/C(=C/F)CN)cn2)CC1 [toslyate salt of Formula 5]
[5]; All cohorts (n = 32)
  TEAE diagnosis and frequency: upper respiratory tract infection: 1 (3.1)
[5]; cohort 1, single oral dose 1 mg or placebo (n = 8)
  TEAE diagnosis and frequency: upper respiratory tract infection: 0
[5]; cohort 2, single oral dose 3 mg or placebo (n = 8)
  TEAE diagnosis and frequency: upper respiratory tract infection: 0
[5]; cohort 3, single oral dose 6 mg (n = 8)
  TEAE diagnosis and frequency: upper respiratory tract infection: 0
[5]; cohort 4, single oral dose 10 mg or placebo (n = 8)
  TEAE diagnosis and frequency: upper respiratory tract infection: 1 (12.5)
[5]; human, in vivo
  Subject incidence of TEAEs considered possibly treatment-related: 1 (3.1)
  Subject incidence of any TEAE: 5 (15.6)
  TEAE diagnosis and frequency: constipation: 1 (3.1)
  TEAE diagnosis and frequency: contact dermatitis: 2 (6.3)
  TEAE diagnosis and frequency: dysgeusia: 1 (3.1)
  TEAE diagnosis and frequency: headache: 1 (3.1)
  TEAE diagnosis and frequency: sore throat: 1 (3.1)
[5]; human, in vivo, po
  TEAE diagnosis and frequency: oral herpes: 1 (3.1)
[6]
  clearance from plasma: rapidly cleared from plasma
  plasma PK exposure dose proportionality: greater than dose proportional
